# Results reported in patent US11458132B2, “Quinolin-2(1H)-one inhibitors of Late SV40 Factor” (TRUSTEES OF BOSTON UNIVERSITY, priority 2020, dated 2022).
# Legend:
# [1] = Plasma protein binding (PPB), human; format: in vitro ADME
# LSF and β-catenin = target: T1, LSF and β-catenin (Homo sapiens, UniProt Q12800); test: Immunoprecipitation of β-catenin probed for LSF in CRC cells; format: cell-based; conditions: 1 μM, 16 hours, HT-29 and HCT-116 cells
# T1 construct: In both these cell lines, LSF co-immunoprecipitated with β-catenin; endogenous in cells; host or cells: HT-29 and HCT-116
# T1 sequence (Q12800 1-502): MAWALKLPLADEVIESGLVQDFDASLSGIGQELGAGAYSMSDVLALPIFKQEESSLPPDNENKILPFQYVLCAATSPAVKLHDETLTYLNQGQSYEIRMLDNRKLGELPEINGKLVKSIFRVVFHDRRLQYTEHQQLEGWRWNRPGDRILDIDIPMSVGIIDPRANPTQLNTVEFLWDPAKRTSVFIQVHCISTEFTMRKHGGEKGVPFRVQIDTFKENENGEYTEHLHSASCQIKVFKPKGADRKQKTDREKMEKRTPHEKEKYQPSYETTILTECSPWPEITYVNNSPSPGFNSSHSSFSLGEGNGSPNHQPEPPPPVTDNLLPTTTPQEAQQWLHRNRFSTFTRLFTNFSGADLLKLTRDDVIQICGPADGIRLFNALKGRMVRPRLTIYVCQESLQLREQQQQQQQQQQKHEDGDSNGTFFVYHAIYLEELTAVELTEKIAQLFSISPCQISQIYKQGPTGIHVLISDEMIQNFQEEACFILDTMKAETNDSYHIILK
# From the text: Immunoprecipitation: The CRC cells were harvested. Proteins of interest were immunoprecipitated using the indicated antibodies at 1:100 concentration. The eluents were resolved by SDS polyacrylamide gel electrophoresis and probed with the indicated antibodies. All the antibodies for immunoblot and immunoprecipitation were acquired from Cell Signaling and were used at the recommended concentrations.
# FH-B cells [2] = test: Analysis of microtubule features by immunofluorescence; format: cell-based, human
# Experimental: Analysis of microtubule features by immunofluorescence: Because Y-27632 diminishes FQI1-induced cell compaction (FIGS. 10C and 10D) without affecting microtubule levels (FIGS. 9A and 9B), cells were pretreated with Y-27632 in order to maintain overall cellular shape, facilitating capture of structural or positional impact of FQI1 on microtubules. In addition, only cells with cell spreading areas larger than 1000 μm^2 were considered. Cells were seeded overnight in high n-dishes, treated as indicated in the figure legends, fixed with formaldehyde as described above, blocked in 5% BSA in PBS and stained overnight at 4° C. with anti-γ-tubulin (1:500, Abcam, ab11316) and anti-α-tubulin (1:500, Fisher Scientific, 62204). Samples were then incubated in goat anti-rabbit Cy5 (1:1000, Invitrogen, A10523), goat anti-mouse Alexa Fluor 546 (1:1000, Thermo Fisher Scientific, A11003), and Phalloidin-iFluor 488 Reagent. Hoechst 33342 and mounting medium were applied, before acquiring Z stack images at 60× magnification on an Olympus Fluoview 10i microscope.
# Using ImageJ, binary Z projections of Phalloidin and Hoechst channel stacks were merged with Z projections with average intensity of the α-tubulin channels. The Phalloidin channel was used as the region of interest for measurement of “integrated density” of the total α-tubulin intensity, which was plotted into swarmplots.
# To assess distribution of visible microtubule ends, the Hoechst, γ-tubulin, and α-tubulin stacks were converted into Z projections with maximum intensity. The Hoechst and γ-tubulin Z projections were thresholded and all channels were merged. A line was generated between the γ-tubulin signal and the center of the nucleus to identify the axis of cell movement; a line perpendicular to the first line and running through the center point of the nucleus divided the cell into posterior and anterior portions. Visible microtubule ends were counted using the Cell Counter plugin, excluding unattached microtubule fragments.
# RPE cells = test: Microtubule sedimentation assay; format: cell-based
# Experimental: Cell lysate preparation: For microtubule sedimentation assays, cells were treated as indicated in the figure legends, washed with PBS and incubated in 250 μl of microtubule sedimentation assay lysis buffer (100 mM PIPES pH 6.8, 2 M glycerol, 2 mM EGTA, 5 mM MgCl2, 0.1% Triton X-100) supplemented with 1 μM taxol, protease inhibitor cocktail (1:200, Abcam, ab201111) and phosphatase inhibitor cocktail (1:100, Abcam, ab201115) for 20 minutes at 37° C. Two hundred μl of scraped lysate was centrifuged at 21,000×g for 10 minutes at room temperature. Supernatants were saved as soluble fractions. Pellets were resuspended in 200 μl RIPA buffer (50 mM Tris HCl pH 8.0, 150 mM NaCl, 1% IGEPAL CA630, 0.05% deoxycholic acid) supplemented with 1.05% SDS, protease inhibitor cocktail (1:200) and phosphatase inhibitor cocktail (1:100) and incubated at 100° C. for 15 minutes. Pellet suspensions were centrifuged as before and supernatants were saved as pellet fractions.
# Gel electrophoresis and immunoblotting: Microtubule sedimentation fractions and MLC2 analysis samples were separated by electrophoresis through tris-glycine and tricine polyacrylamide gels, respectively, which were transferred to PVDF membranes. Membranes with microtubule sedimentation fractions and MLC2 analysis samples were blocked in 5% milk in TBST and in 5% BSA in TBST, respectively. After overnight incubation with primary antibody at 4° C., the membranes were washed and incubated with secondary antibody for 1 hour at room temperature. Primary antibodies included anti-α-tubulin (1:2,000, Thermo Fisher Scientific, PA529444), anti-acetylated tubulin (1:1,000, Sigma-Aldrich, T7451), anti-phospho MYL9 (1:200, Thermo Fisher Scientific, PA517727), and anti-β-actin (1:5,000, Sigma-Aldrich, A1978). Secondary antibodies included Goat anti-Rabbit HRP (Thermo Fisher Scientific, 31460; 1:10,000 for anti-α-tubulin; 1:5,000 for anti-phospho MYL9), and Goat anti-Mouse HRP (Thermo Fisher Scientific, 62-6520; 1:5,000 for anti-acetylated tubulin; 1:10,000-1:20,000 for anti-β-actin). Membranes were placed into Pierce™ ECL Western Blotting Substrate (Thermo Fisher Scientific, 32106). Autoradiography film was exposed to each membrane for various times to ensure acquisition of non-saturated exposures. Band intensities were quantified from scanned films by densitometry using ImageJ.
# FH-B cells [3] = test: Cell cycle analysis by flow cytometry; format: cell-based, human; conditions: asynchronous FH-B cells, 4 μM FQI1, 1 hour
# Experimental: Cell cycle analysis by flow cytometry: After trypsinization, subsequent steps prior to staining were performed at 4° C. Cells in PBS were transferred dropwise into ethanol (final concentration of 70%) for overnight incubation. Fixed cells were washed with PBS and then incubated in 50 μg/ml propidium iodide and 10 μg/ml RNase A in PBS for 45 minutes at room temperature. After passage through a cell strainer, cell fluorescence was measured using a Becton Dickinson FACSCalibur. Ten thousand events were counted per sample. Histogram plots were generated using FlowJo.
SMILES,fraction unbound [1],interaction of LSF and β-catenin (co-immunoprecipitation) (LSF and β-catenin),anterior-posterior patterning of visible microtubule ends (FH-B cells [2]; 4 μM FQI1),"overall α-tubulin intensity (FH-B cells [2]; 4 μM FQI1, 30 minutes, Y-27632 pretreated)","increase in the number of individually discernible microtubule ends (FH-B cells [2]; 4 μM FQI1, 30 minutes, vs vehicle)",time after addition at which a drop in pelleted tubulin is observed (RPE cells; 4 μM FQI1),"microtubule stability and α-tubulin acetylation in the microtubule fraction (RPE cells; 4 μM FQI1 (15- and 30-minute pellets), 1 μM nocodazole or taxol 30 minutes)",cell cycle phases by cellular DNA profiling (FH-B cells [3])
"CCOc1cc(N(C)C)ccc1-c1cc(=O)[nH]c2cc3c(cc12)OCO3 [FQI2-34, 8-(4-(dimethylamino)-2-ethoxyphenyl)-[1,3]dioxolo[4,5-g]quinolin-6(5H)-one]",0.1,consistently reduced this interaction,–,–,–,–,–,–
"CCOc1ccccc1C1CC(=O)Nc2cc3c(cc21)OCO3 (centres unmarked) [FQI1, 8-(2-ethoxyphenyl)-7,8-dihydro-[1,3]dioxolo[4,5-g]quinolin-6(5H)-one]",–,–,largely unaffected,significant decrease in overall α-tubulin intensity,2.7 fold,1 min,increase in the amount of acetylated α-tubulin in the microtubule fraction,no apparent shift in cell cycle phases
